Experiments:
SUV39H1 = assay: quantitative PCR of SUV39H1 expression (RNA) after antisense oligonucleotide transfection; assay type: cell-based, human; conditions: MDA-MB-231 cells, 7 hours after transfection, compared to control (reverse) oligonucleotide (100%)
From the text: First, the antisense (SEQ ID NO: 4) to the full-length sequence shown by SEQ ID NO: 3 was designed. Thereafter, phosphorothioated oligonucleotide was synthesized, purified on HPLC and used for the transfection test (Amersham Pharmacia Biotech). For control oligonucleotide, a reverse sequence (SEQ ID NO: 5) of the base sequence represented by SEQ ID NO: 4 was likewise phosphorothioated, purified on HPLC and used for the test (Amersham Pharmacia Biotech).
Breast cancer cell line MDA-MB-231 (In Vitro, 14 (11), 911-915, 1978, purchased from ATCC) was used as cells to be tested and on the day before transfecting the oligonucleotide, the cells were plated in 18×10^3 on a 24-well plate (manufactured by Falcon). To transfect the oligonucleotide, OligofectAMINE (manufactured by Invitrogen) was used to follow its protocol. In accordance with the protocol of RNeasy mini kit (manufactured by Qiagen), RNA was extracted 7 hours after the transfection and cDNA was prepared using TaqMan Reverse Transcription Reagents (manufactured by Applied Biosystems). Using 2 primers (SEQ ID NO: 6 and SEQ ID NO: 7) and probe (SEQ ID NO: 8; Amersham Pharmacia Biotech), quantitative PCR was carried out by ABI PRISM TM 7700 Sequence Detector (manufactured by Applied Biosystems). […]

[1] = system: Breast cancer cell line MDA-MB-231; assay: apoptosis by cell death detection ELISA after antisense oligonucleotide transfection; assay type: cell-based, human; conditions: MDA-MB-231 cells, 3 days after transfection, compared to control (100%)

Q: What does the source list for “antisense: phosphorothioated antisense oligonucleotide (SEQ ID NO: 4) to the full-length SUV39H1 sequence shown by SEQ ID NO: 3 (antisense ATGCGTCCCAGATGGCTGCG; all phosphorothioate, sugars by position and methylation of C not given here)”?
A: expression (RNA) of SUV39H1 (SUV39H1): 70%; apoptosis [1]: 213%
